Values quoted from earlier work as cited in publication PMC12036195 (Journal of Hematology & Oncology, 2025).

System: r/r PTCL

In the case of `N#CC[C@H](C1CCCC1)n1cc(-c2ncnc3[nH]ccc23)cn1` [ruxolitinib], the Response rate is given as 25%.
